Measured values from patent publication US9745325B2, “Fused heterocyclic compound” (Takeda Pharmaceutical Company Limited, priority 2014, dated 2017).
pIC50: −log10 of the molar value. Where a name gives a salt, the structure may show the parent alone.

Legend:
CDK8/CycC = target: T1, CDK8/CycC (Homo sapiens, UniProt P49336); assay: CDK8 inhibitory activity (Kinase Tracer-236 / Eu-anti-GST fluorescence assay); type: binding; set-up: Percent inhibition of CDK8 activity (%): concentration or dose not given beside the values; conditions: for Percent inhibition of CDK8 activity (%): test compound concentration given as '1 1.1.1\4' [sic]
T1 construct: purchased Carna Biosciences
Description: (§1) The compound of the present invention was evaluated for its CDK8 inhibitory activity and CDK19 inhibitory activity by the following method. […] The primary diluted solution was dispensed in the amount of 2 μL/well to a 384-well plate, and then, a mixed solution of Eu^3+ Cryptate conjugated mouse monoclonal antibody anti-glutathione S-transferase (Cisbio) diluted 267-fold with an assay buffer and 60 nM Kinase Tracer-236 (Life technologies) was added thereto at 2 μL/well. […] After the addition, the plate was left standing at room temperature for 1 hour, and then, the fluorescence intensity (excitation wavelength 320 nm, fluorescence wavelength 615 nm, 665 nm, delay time 50 μsec) was measured using ann EnVision plate reader (PerkinElmer). The percent inhibition of CDK8 or CDK19 activity by the test compound can be calculated according to the following formula, wherein the fluorescence intensity of a reaction solution in the absence of compound is defined as the control, and the fluorescence intensity of a reaction solution in the presence of 10 μM of control compound is defined as the blank.

CDC2L6/CycC (CDK19) = target: T2, CDC2L6/CycC (CDK19) (Homo sapiens, UniProt Q9BWU1); assay: CDK19 inhibitory activity (Kinase Tracer-236 / Eu-anti-GST fluorescence assay); type: binding; set-up: Percent inhibition of CDK19 activity (%): concentration or dose not given beside the values; conditions: for Percent inhibition of CDK19 activity (%): test compound concentration given as '1 1.1.1\4' [sic]
T2 construct: purchased Carna Biosciences Inc
Description: as §1

[1] = system: human multiple myeloma RPMI8226 cells; assay: Inhibitory activity against human multiple myeloma RPMI8226 cell growth (CellTiter-Glo); type: cell-based; conditions: Homo sapiens, RPMI-8226, 192 h, 1 μM test compound, cultured for 8 days; read-out: Percent inhibition of RPMI8226 cell growth (%)
Description: The compound of the present invention was evaluated for its inhibitory activity against human multiple myeloma RPMI8226 cell growth by the following method.
A suspension of human multiple myeloma RPMI8226 cells (purchased from the Health Protection Agency) was inoculated at 40 μL (300 cells/well) to a 384-well plate and cultured at 37° C. for 1 day in a 5% CO2 incubator. After the culture, each test compound solution was added thereto at a test concentration of 1 μM using TECAN D300, and the cells were further cultured for 8 days. After the culture, CellTiter-Glo™ Luminescent Cell Viability Assay reagent (Promega) was added at 40 μL/well to a 384-well plate, and the amount of luminescence was measured using a luminometer. Inhibitory activity against human multiple myeloma RPMI8226 cell growth (percent inhibition (%)) of the test compound was calculated according to the following formula, which is based on the hypothesis that the amount of residual ATP reflects the number of cells. In this formula, 100% control represents the amount of luminescence from a well with only 0.1% DMSO added. Percent inhibition (%)=(1−(amount of luminescence of the test compound)÷(100% control))×100

T1 sequence (P49336 whole entry): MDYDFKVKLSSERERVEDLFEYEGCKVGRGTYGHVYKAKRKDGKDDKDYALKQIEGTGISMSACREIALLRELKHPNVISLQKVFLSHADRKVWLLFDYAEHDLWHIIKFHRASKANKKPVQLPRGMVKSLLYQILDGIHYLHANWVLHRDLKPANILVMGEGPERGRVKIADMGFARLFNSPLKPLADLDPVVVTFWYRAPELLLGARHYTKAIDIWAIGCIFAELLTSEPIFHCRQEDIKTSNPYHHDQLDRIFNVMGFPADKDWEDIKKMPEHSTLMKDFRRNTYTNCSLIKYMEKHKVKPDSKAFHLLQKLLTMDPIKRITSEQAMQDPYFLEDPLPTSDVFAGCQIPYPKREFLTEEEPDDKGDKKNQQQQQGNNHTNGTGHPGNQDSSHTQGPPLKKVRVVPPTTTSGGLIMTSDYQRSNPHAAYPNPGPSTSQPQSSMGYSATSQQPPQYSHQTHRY
T1 sequence (P24863 whole entry partner): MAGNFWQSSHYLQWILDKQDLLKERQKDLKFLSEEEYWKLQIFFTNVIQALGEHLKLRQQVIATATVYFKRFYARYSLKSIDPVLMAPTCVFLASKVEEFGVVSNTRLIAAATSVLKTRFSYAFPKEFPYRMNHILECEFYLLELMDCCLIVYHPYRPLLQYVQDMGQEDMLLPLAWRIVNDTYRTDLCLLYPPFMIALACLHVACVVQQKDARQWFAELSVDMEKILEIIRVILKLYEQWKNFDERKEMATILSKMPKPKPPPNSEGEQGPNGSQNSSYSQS
T2 sequence (Q9BWU1 whole entry): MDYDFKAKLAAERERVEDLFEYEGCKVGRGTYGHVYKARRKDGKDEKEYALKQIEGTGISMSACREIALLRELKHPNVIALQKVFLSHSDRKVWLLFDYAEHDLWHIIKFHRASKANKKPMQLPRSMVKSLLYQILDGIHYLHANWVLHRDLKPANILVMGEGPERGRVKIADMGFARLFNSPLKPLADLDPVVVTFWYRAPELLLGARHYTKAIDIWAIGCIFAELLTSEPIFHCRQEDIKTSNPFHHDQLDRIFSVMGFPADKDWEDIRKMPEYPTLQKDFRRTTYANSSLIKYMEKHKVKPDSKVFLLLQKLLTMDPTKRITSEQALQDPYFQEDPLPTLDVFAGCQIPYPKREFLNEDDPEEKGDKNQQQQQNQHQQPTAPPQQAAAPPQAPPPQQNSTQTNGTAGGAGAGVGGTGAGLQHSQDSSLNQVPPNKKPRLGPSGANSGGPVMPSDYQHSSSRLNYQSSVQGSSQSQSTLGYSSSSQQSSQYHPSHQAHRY
T2 sequence (P24863 whole entry partner): as the sequence (P24863 whole entry partner) above

| Structure (SMILES) | Percent inhibition of CDK8 activity (%) (CDK8/CycC) | Percent inhibition of CDK19 activity (%) (CDC2L6/CycC (CDK19)) | pIC50 (CDK8/CycC; control compound, for reference, read-out: CDK8 inhibition IC50) | pIC50 (CDC2L6/CycC (CDK19); control compound, for reference, read-out: CDK19 inhibition IC50) | inhibition at 1 µM [1] [%] |
| --- | --- | --- | --- | --- | --- |
| NC(=O)c1sc(Oc2ccc(Br)cc2)c2c1CCc1cnsc1-2 [Example 1, 8-(4-Bromophenoxy)-4,5-dihydrothieno[3,4-g][1,2]benzothiazole-6-carboxamide] | 100 | 103 | – | – | 56 |
| N#Cc1ccc(Oc2sc(C(N)=O)c3c2-c2sncc2CC3)cc1 [Example 2, 8-(4-Cyanophenoxy)-4,5-dihydrothieno[3,4-g][1,2] benzothiazole-6-carboxamide] | 100 | 100 | – | – | 58 |
| NC(=O)c1sc(Oc2ccc(C(=O)N3CCOCC3)cc2)c2c1CCc1cnsc1-2 [Example 3, 8-(4-(Morpholin-4-ylcarbonyl)phenoxy)-4,5-dihydrothieno[3,4-g][1,2]benzothiazole-6-carboxamide] | 97 | 99 | – | – | 60 |
| CCCS(=O)(=O)c1ccc(Oc2sc(C(N)=O)c3c2-c2sncc2CC3)cc1 [Example 5, 8-(4-(Propylsulfonyl)phenoxy)-4,5-dihydrothieno[3,4-g][1,2]benzothiazole-6-carboxamide] | 99 | 100 | – | – | 63 |
| CS(=O)(=O)c1cc(Oc2sc(C(N)=O)c3c2-c2sncc2CC3)ccc1C#N [Example 6, 8-(4-Cyano-3-(methylsulfonyl)phenoxy)-4,5-dihydrothieno[3,4-g][1,2]benzothiazole-6-carboxamide] | 89 | 84 | – | – | 46 |
| N#Cc1ccc(Oc2sc(C(N)=O)c3c2-c2sncc2CC3)cn1 [Example 11, 8-((6-Cyanopyridin-3-yl)oxy)-4,5-dihydrothieno[3,4-g][1,2]benzothiazole-6-carboxamide] | 96 | 99 | – | – | 71 |
| NC(=O)c1sc(Oc2ccc(C(=O)N3CCOCC3)nc2)c2c1CCc1cnsc1-2 [Example 19, 8-((6-(Morpholin-4-ylcarbonyl)pyridin-3-yl)oxy)-4,5-dihydrothieno[3,4-g][1,2]benzothiazole-6-carboxamide] | 98 | 93 | – | – | 53 |
| CC1(C(=O)Nc2ccc(Oc3sc(C(N)=O)c4c3-c3sncc3CC4)cn2)COC1 [Example 20, 8-((6-(((3-Methyloxetan-3-yl)carbonyl)amino)pyridin-3-yl)oxy)-4,5-dihydrothieno[3,4-g][1,2]benzothiazole-6-carboxamide] | 102 | 99 | – | – | 66 |
| NC(=O)c1sc(Oc2ccc(NC(=O)C3(O)CC3)nc2)c2c1CCc1cnsc1-2 [Example 21, 8-((6-(((1-Hydroxycyclopropyl)carbonyl)amino)pyridin-3-yl)oxy)-4,5-dihydrothieno[3,4-g][1,2]benzothiazole-6-carboxamide] | 106 | 100 | – | – | 70 |
| Oc1ccc(-c2n[nH]cc2-c2ccc3c(c2)OCCO3)c(O)c1 [control compound, 4-(4-(2,3-dihydro-1,4-benzodioxin-6-yl)-1H-pyrazol-3-yl)benzene-1,3-diol, reference compound] | – | – | 6.92 | 6.89 | – |

Further lines, with some results ahead:

| Percent inhibition of CDK8 activity (%) (CDK8/CycC) | Percent inhibition of CDK19 activity (%) (CDC2L6/CycC (CDK19)) | pIC50 (CDK8/CycC; control compound, for reference, read-out: CDK8 inhibition IC50) | pIC50 (CDC2L6/CycC (CDK19); control compound, for reference, read-out: CDK19 inhibition IC50) | Structure (SMILES) | inhibition at 1 µM [1] [%] |
| --- | --- | --- | --- | --- | --- |
| 97 | 98 | – | – | CN(C)C(=O)c1ccc(Oc2sc(C(N)=O)c3c2-c2sncc2CC3)cc1 [Example 4, 8-(4-(Dimethylcarbamoyl)phenoxy)-4,5-dihydrothieno[3,4-g][1,2] benzothiazole-6-carboxamide] | 61 |
| 100 | 101 | – | – | Cc1ncccc1Oc1sc(C(N)=O)c2c1-c1sncc1CC2 [Example 7, 8-((2-Methylpyridin-3-yl)oxy)-4,5-dihydrothieno[3,4-g][1,2]benzothiazole-6-carboxamide] | 69 |
| 96 | 101 | – | – | NC(=O)c1sc(Oc2ccc(Cl)nc2)c2c1CCc1cnsc1-2 [Example 10, 8-((6-Chloropyridin-3-yl)oxy)-4,5-dihydrothieno[3,4-g][1,2]benzothiazole-6-carboxamide] | 60 |
| 100 | 97 | – | – | NC(=O)c1sc(Oc2ccc(C(=O)O)nc2)c2c1CCc1cnsc1-2 [Example 12, 5-((6-Carbamoyl-4,5-dihydrothieno[3,4-g][1,2]benzothiazol-8-yl)oxy)pyridine-2-carboxylic acid] | 65 |
| 92 | 97 | – | – | N=C(N)c1ccc(Oc2sc(C(N)=O)c3c2-c2sncc2CC3)cn1 [Example 14, 8-((6-Carbamimidoylpyridin-3-yl)oxy)-4,5-dihydrothieno[3,4-g][1,2] benzothiazole-6-carboxamide] | 65 |
| 100 | 102 | – | – | CCOC(=O)c1ccc(Oc2sc(C(N)=O)c3c2-c2sncc2CC3)cn1 [Example 15, Ethyl 5-((6-carbamoyl-4,5-dihydrothieno[3,4-g][1,2]benzothiazol-8-yl)oxy)pyridine-2-carboxylate] | 64 |
| 98 | 99 | – | – | NC(=O)c1sc(Oc2ccc(Br)nc2)c2c1CCc1cnsc1-2 [Example 16, 8-((6-Bromopyridin-3-yl)oxy)-4,5-dihydrothieno[3,4-g][1,2]benzothiazole-6-carboxamide] | 59 |
| 102 | 101 | – | – | CNC(=O)c1ccc(Oc2sc(C(N)=O)c3c2-c2sncc2CC3)cn1 [Example 17, 8-((6-(Methylcarbamoyl)pyridin-3-yl)oxy)-4,5-dihydrothieno[3,4-g][1,2]benzothiazole-6-carboxamide] | 66 |
| 102 | 104 | – | – | CC(C)(O)C(=O)Nc1ccc(Oc2sc(C(N)=O)c3c2-c2sncc2CC3)cn1 [Example 22, 8-((6-((2-Hydroxy-2-methylpropanoyl)amino)pyridin-3-yl)oxy)-4,5-dihydrothieno[3,4-g][1,2]benzothiazole-6-carboxamide] | 71 |
| 104 | 100 | – | – | COCCNC(=O)c1ccc(Oc2sc(C(N)=O)c3c2-c2sncc2CC3)c(C)n1 [Example 25, 8-((6-((2-Methoxyethyl)carbamoyl)-2-methylpyridin-3-yl)oxy)-4,5-dihydrothieno[3,4-g][1,2] benzothiazole-6-carboxamide] | 60 |
| 103 | 102 | – | – | Cc1nc(N(C)C(=O)C2CC2)ccc1Oc1sc(C(N)=O)c2c1-c1sncc1CC2 [Example 26, 8-((6-((Cyclopropylcarbonyl)(methyl)amino)-2-methylpyridin-3-yl)oxy)-4,5-dihydrothieno[3,4-g][1,2]benzothiazole-6-carboxamide] | 66 |
| 102 | 102 | – | – | CNc1ccc(Oc2sc(C(N)=O)c3c2-c2sncc2CC3)c(C)n1 [Example 27, 8-((2-Methyl-6-(methylamino)pyridin-3-yl)oxy)-4,5-dihydrothieno[3,4-g][1,2]benzothiazole-6-carboxamide monohydrochloride] | 81 |
| 101 | 99 | – | – | CC(=O)N(C)c1ccc(Oc2sc(C(N)=O)c3c2-c2sncc2CC3)c(C)n1 [Example 28, 8-((6-(Acetyl(methyl)amino)-2-methylpyridin-3-yl)oxy)-4,5-dihydrothieno[3,4-g][1,2]benzothiazole-6-carboxamide] | 63 |
